Data from patent US7304074B2, “Substituted 1,5-naphthyridine azolinones” (Hoffmann-La Roche Inc., priority 2005, dated 2007).

Legend:
Format in all cases: biochemical
CDK1/Cyclin B = CDK1/Cyclin B (Homo sapiens, UniProt P06493); experiment: CDK1/Cyclin B kinase assay (FlashPlate or HTRF); conditions: recombinant human CDK1/Cyclin B, Rb substrate; Ki=IC50/(1+[S]/Km)
Description: To determine inhibition of CDK1 activity, either FlashPlate™ (NEN™-Life Science Products) assay or HTRF assay was performed. Both types of kinase assays were carried out using recombinant human CDK1/Cyclin B complex. GST-cyclinB (GST-cycB) and CDK1 cDNA clones in baculovirus vectors were provided by Dr. W. Harper at the Baylor College of Medicine, Houston, Tex. Proteins were co-expressed in High Five™ insect cells and the complex was purified on glutathione Sepharose resin (Pharmacia, Piscataway, N.J.) as previously described (Harper, J. W. et al. Cell 1993, 75, 805-816). A 6×-Histidine tagged truncated form of retinoblastoma (Rb) protein (amino acid 386-928) was used as the substrate for the CDK1/Cyclin B assay (the expression plasmid was provided by Dr. Veronica Sullivan, Department of Molecular Virology, Roche Research Centre, Welwyn Garden City, United Kingdom). The Rb protein is a natural substrate for phosphorylation by CDK1 (see Herwig and Strauss Eur. J. Biochem. Vol. 246 (1997) pp. 581-601 and the references cited therein). The expression of the 62 Kd protein was under the control of an IPTG inducible promoter in an M15 E. coli strain. Cells were lysed by sonication and purification was carried out by binding lysates at pH 8.0 to a Ni-chelated agarose column pretreated with 1 mM imidazole. The resin was then washed several times with incrementally decreasing pH buffers to pH 6.0, and eluted with 500 mM imidazole. Eluted protein was dialysed against 20 mM HEPES pH 7.5, 30% glycerol, 200 mM NaCl, and 1 mM DTT. Purified Rb fusion protein stocks were quantitated for protein concentration, aliquoted, and stored at −70° C.
For the FlashPlate kinase assay, 96-well FlashPlates were coated with Rb protein at 10 μg/ml, using 100 μl per well. Plates were incubated at 4° C. overnight or at room temperature for 3 hours on a shaker. To control for nonspecific phosphorylation, one row of wells was coated with 100 μl/well coating buffer (20 mM HEPES, 0.2 M NaCl). Plates were then washed twice with wash buffer (0.01% Tween 20 in phosphate-buffered saline). Compounds to be tested (“test compounds”) were added to the wells at 5×final concentration. Reactions were initiated by immediate addition of 40 μl reaction mix (25 mM HEPES, 20 mM MgCl2, 0.002% Tween 20, 2 mM DTT, 1 μM ATP, 3.3 nM 33P-ATP) and a sufficient amount of enzyme to give counts that were at least 10-fold above background. Plates were incubated at room temperature on a shaker for 30 minutes. Plates were washed four times with the wash buffer, sealed, and counted on the TopCount scintillation counter (Packard Instrument Co., Downers Grove, Ill.). The percent inhibition of Rb phosphorylation, which is a measure of the inhibition of CDK1 activity, was determined according to the following formula:
[formula] where “test compound” refers to the average counts per minute of the test duplicates, “nonspecific” refers to the average counts per minute when no CDK1/Cyclin B, etc., was added, and “total” refers to the average counts per minute when no compound was added. […] The value of the inhibitor constant Ki is calculated by the following: Ki=IC50/(1+[S]/Km), where [S] is the ATP concentration and Km is Michaelis constant.
The Homogeneous Time Resolved Fluorescence (HTRF) kinase assay was carried out in 96-well polypropylene plates (BD Biosciences, Bedford, Mass.). […]

CDK2 = CDK2 (Homo sapiens, UniProt P24941); experiment: CDK2 kinase inhibition (selectivity)
CDK4 = CDK4 (Homo sapiens, UniProt P11802); experiment: CDK4 kinase inhibition (selectivity)
CDK4, sequence (P11802 whole entry, species assumed): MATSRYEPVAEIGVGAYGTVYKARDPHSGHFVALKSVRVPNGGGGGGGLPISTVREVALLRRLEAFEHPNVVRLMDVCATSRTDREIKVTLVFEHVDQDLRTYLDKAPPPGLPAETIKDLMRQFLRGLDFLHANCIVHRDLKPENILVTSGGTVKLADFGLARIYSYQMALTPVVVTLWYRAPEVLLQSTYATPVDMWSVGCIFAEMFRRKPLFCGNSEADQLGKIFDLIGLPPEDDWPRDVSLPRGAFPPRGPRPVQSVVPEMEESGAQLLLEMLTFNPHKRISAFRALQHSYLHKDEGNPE
CDK4, sequence (P24385 whole entry partner, species assumed): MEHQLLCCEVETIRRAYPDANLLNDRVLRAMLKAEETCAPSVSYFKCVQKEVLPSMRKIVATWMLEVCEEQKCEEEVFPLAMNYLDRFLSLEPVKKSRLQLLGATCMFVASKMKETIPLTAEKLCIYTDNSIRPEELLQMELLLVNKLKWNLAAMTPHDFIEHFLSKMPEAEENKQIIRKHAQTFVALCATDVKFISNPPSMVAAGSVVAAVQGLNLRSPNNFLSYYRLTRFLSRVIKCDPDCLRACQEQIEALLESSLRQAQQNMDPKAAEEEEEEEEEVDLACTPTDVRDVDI

CDK1/Cyclin B, sequence (P06493 whole entry, the tested form may be a part): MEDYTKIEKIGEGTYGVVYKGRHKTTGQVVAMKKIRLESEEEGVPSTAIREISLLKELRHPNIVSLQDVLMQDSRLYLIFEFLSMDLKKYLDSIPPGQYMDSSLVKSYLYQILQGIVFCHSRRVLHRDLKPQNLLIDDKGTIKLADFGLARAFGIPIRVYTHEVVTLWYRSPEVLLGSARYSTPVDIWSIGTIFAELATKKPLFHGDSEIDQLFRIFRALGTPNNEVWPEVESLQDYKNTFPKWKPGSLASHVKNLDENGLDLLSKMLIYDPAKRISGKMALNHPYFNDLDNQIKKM
CDK1/Cyclin B, sequence (P14635 whole entry partner, the tested form may be a part): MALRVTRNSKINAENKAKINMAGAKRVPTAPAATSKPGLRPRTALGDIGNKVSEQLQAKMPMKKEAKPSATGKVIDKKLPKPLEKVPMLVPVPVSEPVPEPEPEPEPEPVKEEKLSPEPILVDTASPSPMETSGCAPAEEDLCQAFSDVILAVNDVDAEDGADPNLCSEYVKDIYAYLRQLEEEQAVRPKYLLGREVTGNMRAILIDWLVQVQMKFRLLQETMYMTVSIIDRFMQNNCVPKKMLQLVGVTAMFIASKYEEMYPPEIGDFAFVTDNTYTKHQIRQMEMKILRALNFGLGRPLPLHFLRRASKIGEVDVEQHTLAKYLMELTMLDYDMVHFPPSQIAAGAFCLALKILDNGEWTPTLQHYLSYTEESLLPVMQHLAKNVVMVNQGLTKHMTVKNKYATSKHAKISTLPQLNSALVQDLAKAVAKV

Ki (CDK1/Cyclin B)	Ki (CDK2)	Ki (CDK4)	Structure (SMILES)
8 nM	18 nM	> 10 µM	CC(C)Oc1c(C#N)cnc2ccc(/C=C3\SC(N)=NC3=O)nc12 [Example 1, 6-(2-Amino-4-oxo-4H-thiazol-5-ylidenemethyl)-4-isopropoxy-[1,5]naphthyridine-3-carbonitrile]
150 nM	610 nM	> 10 µM	CC(C)Oc1c(C#N)cnc2ccc(/C=C3\SC(NCc4ccccc4Cl)=NC3=O)nc12 [Example 2]
78 nM	351 nM	> 10 µM	CC(C)Oc1c(C#N)cnc2ccc(/C=C3\SC(N[C@@H]4C[C@H]4c4ccccc4)=NC3=O)nc12 [Example 3, 4-Isopropoxy-6-[4-oxo-2-(2-phenyl-cyclopropylamino)-4H-thiazol-5-ylidenemethyl]-[1,5]naphthyridine-3-carbonitrile]
47 nM	554 nM	> 10 µM	CC(C)Oc1c(C#N)cnc2ccc(/C=C3\SC(NCc4cccs4)=NC3=O)nc12 [Example 4, 4-Isopropoxy-6-{4-oxo-2-[(thiophen-2-ylmethyl)-amino]-4H-thiazol-5-ylidenemethyl}-[1,5]naphthyridine-3-carbonitrile]
539 nM	> 10000 nM		Cc1cccc(Cl)c1CNC1=NC(=O)/C(=C/c2ccc3ncc(C#N)cc3n2)S1 [Example 17, 6-[2-(2-Chloro-6-methyl-benzylamino)-4-oxo-4H-thiazol-5-ylidenemethyl]-[1,5]naphthyridine-3-carbonitrile]
